Literature values, collected in patent publication EP3933036B1, “PROCESS FOR 7-BETA-HYDROXYLATION OF BILE ACID DERIVATIVES” (MICROMUN Institut für Mikrobiologische Forschung GmbH, priority 2020, dated 2022).

Settings: at 298 K

CCOC(C)=O [ethyl acetate]
octanol/water partition coefficient (KOW): 11

CC#N [acetonitrile]
octanol/water partition coefficient (KOW): 2

C[S+](C)[O-] [DMSO]
octanol/water partition coefficient (KOW): 2
